Source: patent EP1247803A2, “Indolinone compounds suitable for modulation of protein kinases” (Sugen, Inc., priority 1996, dated 1998)

What was measured:
FLK-1 receptor = biological target: T1, FLK-1 receptor (Mus musculus, UniProt P35918); assay: FLK-1 ELISA (kinase activity of the FLK-1 receptor in FLK-1/NIH3T3 cells, VEGF stimulated); type: cell-based
T1 construct: expressed in transfected cells; host or cells: NIH3T3 C7#3
Method: An enzyme linked immunosorbent assay (ELISA) was conducted to measure the catalytic activity of the FLK-1 receptor and more specifically, the inhibition or activation of indolinone compounds on the catalytic activity of the FLK-1 receptor. Specifically, the following assay was conducted to measure catalytic activity of the FLK-1 receptor in FLK-1/NIH3T3 cells.
The materials and protocol for the FLK-1 ELISA assay are as described in International Patent Publication No. WO 96/40116, published December 19, 1996 by Tang et al.
Selected compounds were tested in the FLK-1 ELISA assay.
An ELISA assay was conducted to measure the kinase activity of the FLK-1 receptor and more specifically, the inhibition or activation of protein tyrosine kinase activity on the FLK-1 receptor. Specifically, the following assay was conducted to measure kinase activity of the FLK-1 receptor in FLK-1/NIH3T3 cells.
Materials. The following reagents and supplies were used: • a. […] Cappel goat anti-rabbit IgG (catalog no. 55641); • c. PBS (Gibco Catalog No. 450-1300EB); • d. TBSW Buffer (50 mM Tris (pH 7.2), 150 mM NaCl and 0.1% Tween-20); • e. Ethanolamine stock (10% ethanolamine (pH 7.0), stored at 4°C); • f. HNTG buffer (20mM HEPES buffer (pH 7.5), 150mM NaCl, 0.2% Triton X-100, and 10% glycerol); • g. EDTA (0.5 M (pH 7.0) as a 100X stock); • h. Sodium ortho vanadate (0.5 M as a 100X stock); • i. Sodium pyro phosphate (0.2M as a 100X stock); • j. NUNC 96 well V bottom polypropylene plates (Applied Scientific Catalog No. AS-72092); • k. NIH3T3 C7#3 Cells (FLK-1 expressing cells); • l. DMEM with 1X high glucose L Glutamine (catalog No. 11965-050); • m. FBS, Gibco (catalog no. 16000-028); • n. L-glutamine, Gibco (catalog no. 25030-016); • o. VEGF, PeproTech, Inc. (catalog no. 100-20)(kept as 1 µg/100 µl stock in Milli-Q dH2O and stored at -20°C; • p. Affinity purified anti-FLK-1 antiserum which can be obtained or purified as follows: • 1. Prepare a Tresyl-Activated Agarose/Flk-1-D column by incubating 10 ml of Tresyl-Activated Agarose with 20 mg of purified GST-Flk-1-D fusion protein in 100mM sodium bicarbonate (pH 9.6) buffer overnight at 4 °C. • 2. Wash the column once with PBS. • 3. Block the excess sites on the column with 2 M glycine for 2 hours at 4°C. • 4. Wash the column with PBS. • 5. Incubate the column with Rabbit anti-Flk-1D production bleed for 2 hours at 4 °C. • 6. Wash the column with PBS. • 7. Elute antiserum with 100 mM Citric Acid, pH3.0 and neutralize the eluate immediately with 2 M Tris, pH 9.0. • 8. Dialyize the eluate against PBS overnight at 4 °C with 3 changes of buffer (sample to buffer ratio is 1:100). • 9. Adjust the dialyized antiserum to 5% glycerol and store at -80 °C in small aliquotes. • q.
Protocol. The following protocol was used for conducting the assay: • 1. Coat Corning 96-well elisa plates with 1.0µg per well Cappel Anti-rabbit IgG antibody in 0.1M Na2CO3 pH 9.6. Bring final volume to 150 µl per well. Coat plates overnight at 4°C. Plates can be kept up to two weeks when stored at 4°C. • 2. Grow cells in Growth media(DMEM, supplemental with 2.0mM L-Glutamine, 10% FBS) in suitable culture dishes until confluent at 37°C, 5% CO2. • 3. Harvest cells by trypsinization and seed in Corning 25850 polystyrene 96-well roundbottom cell plates, 25.000 cells/well in 200µl of growth media. • 4. Grow cells at least one day at 37°C, 5% CO2. • 5. Wash cells with D-PBS 1X. • 6. Add 200µl/well of starvation media (DMEM, 2.0mM 1-Glutamine, 0.1% FBS). Incubate overnight at 37°C, 5% CO2. • 7. Dilute Compounds/Extracts 1:20 in polypropylene 96 well plates using starvation media. Dilute dimethylsulfoxide 1:20 for use in control wells. • 8. Remove starvation media from 96 well cell culture plates and add 162 µl of fresh starvation media to each well. • 9. Add 18µl of 1:20 diluted Compound/Extract dilution (from step 7) to each well plus the 1:20 dimethylsulfoxide dilution to the control wells (+/- VEGF), for a final dilution of 1:200 after cell stimulation. […]

PDGF-R = PDGF-R (Homo sapiens, UniProt P09619); assay: PDGF-R ELISA; type: cell-based
Sequence of PDGF-R (P09619 33-1106, species assumed): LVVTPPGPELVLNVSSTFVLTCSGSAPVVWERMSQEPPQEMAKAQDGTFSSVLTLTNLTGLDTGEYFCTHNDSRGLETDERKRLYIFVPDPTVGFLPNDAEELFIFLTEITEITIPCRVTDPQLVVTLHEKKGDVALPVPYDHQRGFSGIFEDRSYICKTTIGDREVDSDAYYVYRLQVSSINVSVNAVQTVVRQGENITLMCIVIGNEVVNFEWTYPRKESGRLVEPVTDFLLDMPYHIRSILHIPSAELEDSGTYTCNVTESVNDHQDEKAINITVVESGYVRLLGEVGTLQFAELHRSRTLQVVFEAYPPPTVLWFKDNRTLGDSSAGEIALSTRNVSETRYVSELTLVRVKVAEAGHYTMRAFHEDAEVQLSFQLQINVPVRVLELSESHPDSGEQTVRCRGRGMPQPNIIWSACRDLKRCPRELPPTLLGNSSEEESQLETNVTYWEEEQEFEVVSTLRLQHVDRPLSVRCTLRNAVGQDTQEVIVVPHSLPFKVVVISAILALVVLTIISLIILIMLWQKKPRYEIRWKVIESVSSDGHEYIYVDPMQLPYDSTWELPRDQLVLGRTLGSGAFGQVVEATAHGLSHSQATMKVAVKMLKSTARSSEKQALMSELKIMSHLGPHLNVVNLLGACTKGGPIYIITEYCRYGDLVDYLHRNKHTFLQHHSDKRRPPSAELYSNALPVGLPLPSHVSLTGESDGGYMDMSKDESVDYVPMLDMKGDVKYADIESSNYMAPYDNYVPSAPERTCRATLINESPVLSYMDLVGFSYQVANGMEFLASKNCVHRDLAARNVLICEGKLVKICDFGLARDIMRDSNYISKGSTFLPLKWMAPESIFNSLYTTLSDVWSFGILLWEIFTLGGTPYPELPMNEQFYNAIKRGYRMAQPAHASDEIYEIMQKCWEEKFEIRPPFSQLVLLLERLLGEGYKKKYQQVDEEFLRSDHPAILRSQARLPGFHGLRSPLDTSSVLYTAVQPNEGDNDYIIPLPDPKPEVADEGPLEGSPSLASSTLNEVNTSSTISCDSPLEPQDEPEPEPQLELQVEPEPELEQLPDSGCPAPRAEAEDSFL
Text: A PDGF-R ELISA is described in International Patent Publication No. WO 96/40116, published December 19, 1996 by Tang et al.

T1 sequence (P35918 20-1345): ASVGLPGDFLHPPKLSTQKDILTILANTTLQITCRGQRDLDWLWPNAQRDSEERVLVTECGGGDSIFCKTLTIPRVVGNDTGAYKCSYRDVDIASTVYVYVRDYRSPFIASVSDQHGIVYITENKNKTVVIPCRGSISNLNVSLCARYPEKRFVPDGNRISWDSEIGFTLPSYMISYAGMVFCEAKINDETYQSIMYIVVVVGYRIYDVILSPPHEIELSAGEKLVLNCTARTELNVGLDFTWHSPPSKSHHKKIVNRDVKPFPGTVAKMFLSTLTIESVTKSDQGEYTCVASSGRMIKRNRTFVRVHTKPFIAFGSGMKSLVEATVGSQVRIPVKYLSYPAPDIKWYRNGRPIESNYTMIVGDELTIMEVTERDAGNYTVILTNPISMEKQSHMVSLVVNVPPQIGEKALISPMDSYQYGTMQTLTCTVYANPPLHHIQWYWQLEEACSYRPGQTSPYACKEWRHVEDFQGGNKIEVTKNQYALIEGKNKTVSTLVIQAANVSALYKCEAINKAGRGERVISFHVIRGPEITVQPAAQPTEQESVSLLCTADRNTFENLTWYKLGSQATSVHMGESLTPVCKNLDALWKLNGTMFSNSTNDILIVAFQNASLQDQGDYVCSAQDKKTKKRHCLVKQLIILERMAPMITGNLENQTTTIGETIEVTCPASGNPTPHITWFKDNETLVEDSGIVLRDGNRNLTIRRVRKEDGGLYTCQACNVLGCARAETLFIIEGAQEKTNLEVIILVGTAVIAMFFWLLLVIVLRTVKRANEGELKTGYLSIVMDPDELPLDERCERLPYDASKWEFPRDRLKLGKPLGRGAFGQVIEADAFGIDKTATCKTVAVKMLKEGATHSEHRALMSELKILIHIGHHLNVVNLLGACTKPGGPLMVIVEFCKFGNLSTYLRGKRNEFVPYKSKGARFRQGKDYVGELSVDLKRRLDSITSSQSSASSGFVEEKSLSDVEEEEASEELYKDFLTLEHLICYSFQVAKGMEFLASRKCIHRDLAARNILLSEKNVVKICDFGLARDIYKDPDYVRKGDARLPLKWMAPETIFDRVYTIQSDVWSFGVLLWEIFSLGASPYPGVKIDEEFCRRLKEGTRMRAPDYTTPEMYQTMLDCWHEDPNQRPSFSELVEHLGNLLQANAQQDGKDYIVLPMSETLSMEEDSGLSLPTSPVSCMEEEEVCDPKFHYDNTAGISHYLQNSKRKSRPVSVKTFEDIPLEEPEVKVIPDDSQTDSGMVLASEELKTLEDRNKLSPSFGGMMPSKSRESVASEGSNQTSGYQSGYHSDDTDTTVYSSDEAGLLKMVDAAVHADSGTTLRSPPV

Structure (SMILES) | Fik Kinase %Inhibition (FLK-1 receptor) | PDGF Kinase %Inhibition (PDGF-R)
CN1C(=O)C(=C2C(=O)Nc3ccc(S(=O)(=O)N4CCOCC4)cc32)c2ccccc21 [10731/F10] | 11.0% | 28.4%
COc1ccc(C=C2C(=O)Nc3c(Br)cc(Br)cc32)cc1C(C)(C)C [10732/A05] | -3.9% | -12.9%
Cc1ccc2occ(C=C3C(=O)Nc4ccc(S(=O)(=O)N5CCOCC5)cc43)c(=O)c2c1 [10731/F06] | 2.2% | -23.4%
CN1C(=O)C(=C2C(=O)Nc3ccc(S(=O)(=O)Nc4ccc(C(F)(F)F)cc4)cc32)c2ccccc21 [10731/E10] | 33.1% | 21.7%
Cc1cc2occ(C=C3C(=O)Nc4ccc(CCCl)cc43)c(=O)c2cc1C [10731/G03] | 12.9% | 6.5%
COc1c(Cl)cc(C=C2C(=O)Nc3ccc(I)cc32)cc1C(C)(C)C [10732/B09] | 14.0% | 18.4%
CNS(=O)(=O)c1ccc2c(c1)C(=C1C(=O)N(C)c3ccccc31)C(=O)N2 [10731/D10] | 13.0% | 9.9%
COc1c(C(C)C)cc(C=C2C(=O)Nc3c(Br)cc(Br)cc32)cc1C(C)C [10732/A03] | -9.9% | -3.8%
CC(C)c1ccc2occ(C=C3C(=O)Nc4ccc(S(=O)(=O)Nc5ccc(C(F)(F)F)cc5)cc43)c(=O)c2c1 [10731/E05] | 7.0% | 27.0%
CNS(=O)(=O)c1ccc2c(c1)C(=Cc1coc3ccc(C)cc3c1=O)C(=O)N2 [10731/D06] | 16.1% | 8.0%
CNS(=O)(=O)c1ccc2c(c1)C(=Cc1cc(Cl)c(OC)c(C(C)(C)C)c1)C(=O)N2 [10732/D09] | 15.2% | 15.9%
CNS(=O)(=O)c1ccc2c(c1)C(=Cc1cc(Br)c(OC)c(C(C)(C)C)c1)C(=O)N2 [10732/D07] | 14.7% | -3.8%
O=C1Nc2ccc(S(=O)(=O)N3CCOCC3)cc2C1=Cc1c[nH]c(=O)[nH]c1=O [10731/F08] | 9.2% | 4.1%
C=C(C)C1CC=C(C=C2C(=O)Nc3ccc(S(=O)(=O)NC)cc32)CC1 (stereo not drawn) [10731/D04] | 9.3% | 6.5%
COc1c(Br)cc(C=C2C(=O)Nc3ccc(Br)c(C)c32)cc1C(C)(C)C [10732/C07] | 15.4% | 4.3%
CNS(=O)(=O)c1ccc2c(c1)C(=Cc1cc(C(C)C)c(OC)c(C(C)C)c1)C(=O)N2 [10732/D03] | 22.5% | 26.0%
COc1c(Br)cc(C=C2C(=O)Nc3ccc(I)cc32)cc1C(C)(C)C [10732/B07] | 1.6% | 21.4%
CC(C)(C)c1cc(C=C2C(=O)Nc3c(Br)cc(Br)cc32)cc(Br)c1OCc1ccccc1 [10732/A08] | -10.0% | 31.0%
O=C1Nc2ccc(S(=O)(=O)N3CCOCC3)cc2C1=Cc1coc2ccc([N+](=O)[O-])cc2c1=O [10731/F07] | 13.3% | 1.3%
CC(C)c1ccc2occ(C=C3C(=O)Nc4ccc(S(=O)(=O)N5CCOCC5)cc43)c(=O)c2c1 [10731/F05] | 17.6% | 20.3%
COc1ccc2[nH]cc(C=C3C(=O)Nc4ccc(S(=O)(=O)N5CCOCC5)cc43)c2c1 [10731/F09] | 2.3% | 15.6%

Structure (SMILES) | Fik Kinase %Inhibition (FLK-1 receptor) | PDGF Kinase %Inhibition (PDGF-R)
COc1c(C(C)C)cc(C=C2C(=O)Nc3ccc(I)cc32)cc1C(C)C [10732/B03] | 8.2% | 17.4%
COc1c(I)cc(C=C2C(=O)Nc3ccc(I)cc32)cc1C(C)(C)C [10732/B11] | 9.0% | 70.9%
CC(C)(C)c1cc(C=C2C(=O)Nc3ccc(I)cc32)ccc1OCc1ccccc1 [10732/B06] | 8.1% | -12.4%
COc1c(Cl)cc(C=C2C(=O)Nc3c(Br)cc(Br)cc32)cc1C(C)(C)C [10732/A09] | -11.2% | 8.8%
O=C1Nc2ccc(CCCl)cc2C1=Cc1coc2ccc([N+](=O)[O-])cc2c1=O [10731/G07] | 31.6% | 40.8%
CNS(=O)(=O)c1ccc2c(c1)C(=Cc1cc(C(C)C)c(Oc3ccccc3)c(C(C)C)c1)C(=O)N2 [10732/D04] | 24.6% | 50.7%
CNS(=O)(=O)c1ccc2c(c1)C(=Cc1coc3ccc([N+](=O)[O-])cc3c1=O)C(=O)N2 [10731/D07] | 12.3% | 2.7%
COc1ccc(C=C2C(=O)Nc3ccc(Br)c(C)c32)cc1C(C)(C)C [10732/C05] | 11.2% | -17.0%
COc1ccc2[nH]cc(C=C3C(=O)Nc4ccc(CCCl)cc43)c2c1 [10731/G09] | 13.3% | -8.7%
Cc1c(Br)ccc2c1C(=Cc1cc(C(C)C)c(Oc3ccccc3)c(C(C)C)c1)C(=O)N2 [10732/C04] | 12.8% | 3.8%
CNS(=O)(=O)c1ccc2c(c1)C(=Cc1coc3ccc(C(C)C)cc3c1=O)C(=O)N2 [10731/D05] | 32.7% | 46.0%
Cc1cc2occ(C=C3C(=O)Nc4ccc(S(=O)(=O)Nc5ccc(C(F)(F)F)cc5)cc43)c(=O)c2cc1C [10731/E03] | -1.4% | 15.6%
CC(C)c1cc(C=C2C(=O)Nc3ccc(I)cc32)cc(C(C)C)c1Oc1ccccc1 [10732/B04] | -1.3% | 16.9%
Cc1c(Br)ccc2c1C(=Cc1ccco1)C(=O)N2 [10718/C10] | -11.9% | –
CNS(=O)(=O)c1ccc2c(c1)C(=Cc1ccc3ccccc3c1O)C(=O)N2 [10718/D04] | 6.4% | –
CNS(=O)(=O)c1ccc2c(c1)C(=Cc1cc(OC)cc(Br)c1O)C(=O)N2 [10718/D03] | 1.1% | –
Cc1c(Br)ccc2c1C(=Cc1ccc([N+](=O)[O-])o1)C(=O)N2 [10718/C11] | 11.4% | –
CCOC(=O)c1c(C)[nH]c(C=C2C(=O)Nc3ccc(S(=O)(=O)NC)cc32)c1C [10718/D02] | 13.3% | –
CCOC(=O)CCc1c(C(=O)OCC)[nH]c(C=C2C(=O)Nc3ccc(S(=O)(=O)NC)cc32)c1CC(=O)OCC [10718/D05] | 11.5% | –
CCOC(=O)c1cc(C=C2C(=O)Nc3ccc(S(=O)(=O)NC)cc32)oc1C [10718/D06] | 15.8% | –
